Tests used:
Experiment in all cases: In vitro antibacterial activity, agar dilution MIC
Type in all cases: cell-based
[1] = system: Staphylococcus aureus CMX 553; parameters: unit not given here; conditions: code FF, BHI agar, 35-37° C., 20 to 24 hours
Description: (§1) Representative compounds of the present invention were assayed in vitro for antibacterial activity as follows: Twelve petri dishes containing successive aqueous dilutions of the test compound mixed with 10 mL of sterilized Brain Heart Infusion (BHI) agar (Difco 0418-01-5) were prepared. Each plate was inoculated with 1:100 (or 1:10 for slow-growing strains, such as Micrococcus and Streptococcus) dilutions of up to 32 different microorganisms, using a Steers replicator block. The inoculated plates were incubated at 35-37° C. for 20 to 24 hours. In addition, a control plate, using BHI agar containing no test compound, was prepared and incubated at the beginning and end of each test.
(§2) An additional plate containing a compound having known susceptibility patterns for the organisms being tested and belonging to the same antibiotic class as the test compound was also prepared and incubated as a further control, as well as to provide test-to-test comparability.
(§3) After incubation, each plate was visually inspected. The minimum inhibitory concentration (MIC) was defined as the lowest concentration of drug yielding no growth, a slight haze, or sparsely isolated colonies on the inoculum spot as compared to the growth control.

Escherichia coli JUHL = system: Escherichia coli JUHL; parameters: unit not given here; conditions: code QQ, BHI agar, 35-37° C., 20 to 24 hours
Description: as §1, §2, §3

Escherichia coli SS = system: Escherichia coli SS; parameters: unit not given here; conditions: code RR, BHI agar, 35-37° C., 20 to 24 hours
Description: as §1, §2, §3

[2] = system: Streptococcus agalactiae CMX 508; parameters: unit not given here; conditions: code KK, BHI agar, 35-37° C., 20 to 24 hours
Description: as §1, §2, §3

[3] = system: Staphylococcus aureus A-5278; parameters: unit not given here; conditions: code CC, BHI agar, 35-37° C., 20 to 24 hours
Description: as §1, §2, §3

[4] = system: Staphylococcus epidermidis 3519; parameters: unit not given here; conditions: code HH, BHI agar, 35-37° C., 20 to 24 hours
Description: as §1, §2, §3

[5] = system: Streptococcus pyogenes 930; parameters: unit not given here; conditions: code MM, BHI agar, 35-37° C., 20 to 24 hours
Description: as §1, §2, §3

[6] = system: Staphylococcus aureus A-5177; parameters: unit not given here; conditions: code BB, BHI agar, 35-37° C., 20 to 24 hours
Description: as §1, §2, §3

[7] = system: Micrococcus luteus ATCC 9341; parameters: unit not given here; conditions: code OO, BHI agar, 35-37° C., 20 to 24 hours
Description: as §1, §2, §3

Escherichia coli DC-2 = system: Escherichia coli DC-2; parameters: unit not given here; conditions: code SS, BHI agar, 35-37° C., 20 to 24 hours
Description: as §1, §2, §3

[8] = system: Nocardia Asteroides ATCC 99700; parameters: unit not given here; conditions: code VV, BHI agar, 35-37° C., 20 to 24 hours
Description: as §1, §2, §3

[9] = system: Staphylococcus aureus NCTC 10649M; parameters: unit not given here; conditions: code EE, BHI agar, 35-37° C., 20 to 24 hours
Description: as §1, §2, §3

[10] = system: Mycobacterium smegmatis ATCC 114; parameters: unit not given here; conditions: code UU, BHI agar, 35-37° C., 20 to 24 hours
Description: as §1, §2, §3

Candida albicans CCH 442 = system: Candida albicans CCH 442; parameters: unit not given here; conditions: code TT, BHI agar, 35-37° C., 20 to 24 hours
Description: as §1, §2, §3

[11] = system: Staphylococcus aureus CMX 642A; parameters: unit not given here; conditions: code DD, BHI agar, 35-37° C., 20 to 24 hours
Description: as §1, §2, §3

[12] = system: Streptococcus pyogenes PIU 2548; parameters: unit not given here; conditions: code NN, BHI agar, 35-37° C., 20 to 24 hours
Description: as §1, §2, §3

[13] = system: Enterococcus faecium ATCC X043; parameters: unit not given here; conditions: code II, BHI agar, 35-37° C., 20 to 24 hours
Description: as §1, §2, §3

[14] = system: Staphylococcus aureus ATCC 6538P; parameters: unit not given here; conditions: code AA, BHI agar, 35-37° C., 20 to 24 hours
Description: as §1, §2, §3

[15] = system: Staphylococcus aureus 1775; parameters: unit not given here; conditions: code GG, BHI agar, 35-37° C., 20 to 24 hours
Description: as §1, §2, §3

[16] = system: Streptococcus bovis A-5169; parameters: unit not given here; conditions: code JJ, BHI agar, 35-37° C., 20 to 24 hours
Description: as §1, §2, §3

[17] = system: Streptococcus Pneumonia 5649; conditions: code ZZA (code list: ZA), 35-37° C., 20 to 24 hours
Description: as §1, §2, §3

[18] = system: Streptococcus Pneumonia ATCC 6303; conditions: code XX, 35-37° C., 20 to 24 hours
Description: as §1, §2, §3

[19] = system: Streptococcus Pneumonia GYR 1171; conditions: code YY, 35-37° C., 20 to 24 hours
Description: as §1, §2, §3

[20] = system: Streptococcus pyogenes EES61; conditions: code LL, BHI agar, 35-37° C., 20 to 24 hours
Description: as §1, §2, §3

[21] = system: Haemophilis Influenzae DILL AMP R; conditions: code WW, 35-37° C., 20 to 24 hours
Description: as §1, §2, §3

[22] = system: Micrococcus luteus ATCC 4698; conditions: code PP, BHI agar, 35-37° C., 20 to 24 hours
Description: as §1, §2, §3

[23] = system: Streptococcus Pneumonia 5979; conditions: code ZZ, 35-37° C., 20 to 24 hours
Description: as §1, §2, §3

| Compound | Antibacterial Activity (MIC) [1] | Antibacterial Activity (MIC) (Escherichia coli JUHL) | Antibacterial Activity (MIC) (Escherichia coli SS) | Antibacterial Activity (MIC) [2] | Antibacterial Activity (MIC) [3] | Antibacterial Activity (MIC) [4] | Antibacterial Activity (MIC) [5] | Antibacterial Activity (MIC) [6] | Antibacterial Activity (MIC) [7] | Antibacterial Activity (MIC) (Escherichia coli DC-2) | Antibacterial Activity (MIC) [8] | Antibacterial Activity (MIC) [9] | Antibacterial Activity (MIC) [10] | Antibacterial Activity (MIC) (Candida albicans CCH 442) | Antibacterial Activity (MIC) [11] | Antibacterial Activity (MIC) [12] | Antibacterial Activity (MIC) [13] | Antibacterial Activity (MIC) [14] | Antibacterial Activity (MIC) [15] | Antibacterial Activity (MIC) [16] | also measured |
| --- | --- | --- | --- | --- | --- | --- | --- | --- | --- | --- | --- | --- | --- | --- | --- | --- | --- | --- | --- | --- | --- |
| CC[C@H]1OC(=O)[C@H](C)[C@@H](O[C@H]2C[C@@](C)(OC)[C@@H](O)[C@H](C)O2)[C@H](C)[C@@H](O[C@@H]2O[C@H](C)C[C@H](N(C)C)[C@H]2O)[C@](C)(O)C[C@@H](C)C(=O)[C@H](C)[C@@H](O)[C@]1(C)O [Ery. A, Erythromycin A, reference compound] | 0.39 | >100 | 0.78 | 0.05 | >100 | 0.39 | >100 | 3.1 | 0.05 | >100 | 0.1 | 0.39 | 3.1 | >100 | 0.39 | 6.2 | 0.05 | 0.2 | >100 | 0.02 | Antibacterial Activity (MIC) [17]: 16; Antibacterial Activity (MIC) [18]: 0.06; Antibacterial Activity (MIC) [19]: 0.06; Antibacterial Activity (MIC) [20]: 0.05; Antibacterial Activity (MIC) [21]: 4; Antibacterial Activity (MIC) [22]: 0.2 |
| CCC1OC(=O)C(C)(CC=Cc2ccccc2)C(=O)C(C)C(OC2OC(C)CC(N(C)C)C2O)C(C)(OC)CC(C)C(=O)C(C)C2NC(=O)OC12C (stereo not shown) [Example 1, Compound of formula (II): R^a is CH3, R^b is H, Y and Z together are O, T is —NH—, R is —CH2CH═CH-(phenyl)] | 50 | >100 | 50 | 12.5 | 100 | 50 | 50 | 25 | 3.1 | >100 | 25 | 50 | 25 | 100 | 25 | 12.5 | 25 | 25 | 100 | 12.5 | Antibacterial Activity (MIC) [17]: 16; Antibacterial Activity (MIC) [23]: 64; Antibacterial Activity (MIC) [18]: 8; Antibacterial Activity (MIC) [19]: 4; Antibacterial Activity (MIC) [20]: 12.5; Antibacterial Activity (MIC) [21]: >128; Antibacterial Activity (MIC) [22]: 6.2 |
| CCC1OC(=O)C(C)(O)C(=O)C(C)C(OC2OC(C)CC(N(C)C)C2O)C(C)(OCC(O)CO)CC(C)C(=O)C(C)C2NC(=O)OC12C (stereo not shown) [Example 3, Compound of formula (II): R^a is —CH2CH(OH)CH2OH, R^b is H, Y and Z together are O, T is —NH—, R is —OH] | >100 | >100 | 100 | 50 | >100 | >100 | >100 | >100 | 50 | >100 | >100 | >100 | >100 | >100 | >100 | >100 | 100 | >100 | >100 | 50 | Antibacterial Activity (MIC) [17]: >128; Antibacterial Activity (MIC) [23]: >128; Antibacterial Activity (MIC) [18]: 64; Antibacterial Activity (MIC) [19]: 32; Antibacterial Activity (MIC) [20]: 100; Antibacterial Activity (MIC) [21]: >128; Antibacterial Activity (MIC) [22]: >100 |
| CCC1OC(=O)C(C)(O)C(=O)C(C)C(OC2OC(C)CC(N(C)C)C2O)C(C)(OC)CC(C)C(=O)C(C)C2N(CCCCc3ccccc3)C(=O)OC12C (stereo not shown) [Example 10, Compound of formula (II): R^a is CH3, R^b is H, Y and Z together are O, T is —N(W(R^g))-, W is —(CH2)p-, p is 4, R^g is phenyl R is —OH] | 1.56 | >100 | 3.1 | 0.2 | 25 | 1.56 | 6.2 | 1.56 | 0.39 | >100 | 1.56 | 1.56 | 1.56 | 25 | 1.56 | 1.56 | 0.39 | 1.56 | 25 | 0.2 | Antibacterial Activity (MIC) [20]: 0.2; Antibacterial Activity (MIC) ([21]; unit assumed): 16 µg/mL; Antibacterial Activity (MIC) [22]: 0.39 |
